# Molecular target: T1, enzyme alcohol dehydrogenase (Saccharomyces cerevisiae, UniProt P00330)
# T1 construct: purchased Sigma Diagnostics 333-B
# T1 sequence (P00330 1-348): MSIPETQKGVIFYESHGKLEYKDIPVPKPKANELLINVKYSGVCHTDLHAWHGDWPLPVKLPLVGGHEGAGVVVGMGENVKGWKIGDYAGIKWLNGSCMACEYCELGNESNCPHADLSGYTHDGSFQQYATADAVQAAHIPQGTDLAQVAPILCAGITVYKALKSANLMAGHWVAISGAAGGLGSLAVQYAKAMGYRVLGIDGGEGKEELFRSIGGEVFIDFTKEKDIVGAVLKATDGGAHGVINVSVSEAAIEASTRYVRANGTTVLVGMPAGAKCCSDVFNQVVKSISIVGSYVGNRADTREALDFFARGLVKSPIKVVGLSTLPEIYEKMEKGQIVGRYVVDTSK
# Test: Test of inhibition of the activity of the enzyme alcohol dehydrogenase (Sigma Diagnostics kit ref. 333-B)
# Type: biochemical
# Conditions: inhibitor 10^-3 M in the final mixture; 10 μl ethanol solution 0.08% w/v; incubated 10 minutes at room temperature; reference = 100
# Procedure: Test of Inhibition of the Activity of the Enzyme Alcohol Dehydrogenase
# The inhibition of the activity of the enzyme alcohol dehydrogenase was determined using a Sigma Diagnostics kit (ref. 333-B).
# 3 ml of the Alcohol Reagent, 10 μl of ethanol solution (0.08% ethanol w/v ref. 330-20) and 10 μl of inhibitor solution in distilled water are incubated for 10 minutes at room temperature.
# For each assay, a blank consisting of 3 ml of the Alcohol Reagent, 10 μl of distilled water and 10 μl of inhibitor solution in distilled water is prepared.
# The inhibitors are diluted so as to be at a concentration of 10^−3 M in the final mixture.
# After incubation of the mixture, 100 μl are taken up and read over a 10-minute interval at 340 nm. The readings are performed in 96-well UV microplates using a UV-visible multiwell spectrophotometer (Spectramax Plus—Molecular Devices) against the blank.
# The inhibition results are expressed as a percentage of absorbance at 340 nm relative to a reference (no inhibitor in the mixture): […]
row,Structure (SMILES),percentage of absorbance at 340 nm relative to a reference (no inhibitor in the mixture)
1,"OCC(Cl)(Cl)Cl [2,2,2-Trichloroethanol]",-12%
2,"CCn1nc(C)c(N)c1N [2-Ethyl-5-methyl-2H-3,4-diaminopyracole]",31%
3,Cc1cn[nH]c1 [4-Methylpyrazole],35%

# More lines, now with the values ahead:
row,percentage of absorbance at 340 nm relative to a reference (no inhibitor in the mixture),Structure (SMILES)
1,32%,c1c[nH]cn1 [Imidazole]
2,16%,c1cn[nH]c1 [Pyrazole]

# From patent US20030138390A1, “Use of alcohol dehydrogenase inhibitors for cosmetic treatment of keratinous materials” (priority 2000, published 2003)
